In brackets after ≈: the same amount, converted by molar mass. Like-named read-outs stand apart in the source and are kept apart here.
How the values were obtained:
[1] = target: recombinant Pseudomonas aeruginosa LpxC (Pseudomonas aeruginosa (strain ATCC 15692 / DSM 22644 / CIP 104116 / JCM 14847 / LMG 12228 / 1C / PRS 101 / PAO1), UniProt P47205); test: Inhibition of LpxC enzymatic activity (fluorescamine assay); type: biochemical
Experimental: The degree of inhibition of the enzymatic activity of recombinant Pseudomonas aeruginosa LpxC by the compounds of the present disclosure under in vitro conditions was determined using the following method.
The experimental procedure is briefly described as follows: The test compound was first dissolved in DMSO to prepare a 10 mM stock solution. The reaction was carried out in a 96-well microplate. First, 20 μL of recombinant Pseudomonas aeruginosa LpxC (purchased from Signalway Antibody, product number AP74647-2) was added to each well, with a final concentration of 5 nM. 5 μL of the compound to be tested was then added, and the compound was diluted 4 times to 8 concentration points with a concentration range of 0.61-10,000 nM. 5 μL of LpxC substrate UDP-3-O—(R-3-hydroxydecanoyl)-GlcNAc (purchased from Biosynth Carbosynth, product number: mu75071) was added, with a final concentration of the substrate of 10 μM. The plate was incubated at 25° C. for 120 minutes. Then 20 μL of 2.0 mg/mL fluorescamine (purchased from sigmaaldrich, product number: F9015, solvent: 1:1 dimethylformamide/acetonitrile) was added to the reaction system, and mixed well for 10 minutes of reaction. Finally, 50 μL of 200 mM sodium phosphate buffer (pH 8.0) was added to terminate the reaction. Reading was carried out using a microplate reader (BMG), and the excitation and emission wavelengths were 390 and 495 nm respectively. By comparing with the fluorescence intensity ratio of the control group ([…]), the percentage inhibition rate of the compound at each concentration was calculated.

K. pneumoniae ATCC13883 = test: Antibacterial activity, MIC by broth microdilution (CLSI); type: cell-based; conditions: Klebsiella pneumoniae; K. pneumoniae ATCC13883, 35° C., 18 to 24 hours; read-out: MIC(K. Pneumoniae)
Experimental: (§1) The in vitro minimum inhibitory concentration (MIC) was determined in accordance with the CLSI guidelines, and was measured using the broth microdilution method.
(§2) The experimental process is briefly described as follows: The test compound was dissolved in DMSO to prepare a […] stock solution, which was then prepared into 11 twice-diluted 100× high-concentration working solutions (the final concentration of the system was 64 μg/mL-0.06 μg/mL) using DMSO. The strains (K. pneumoniae ATCC13883 and E. coli ATCC 25922) frozen in −80° C. glycerol were inoculated into solid agar medium, placed in an incubator at 35° C. for 18-24 hours of incubation. After the preparation of strains was completed, an appropriate amount of solid plate culture was collected, resuspended in physiological saline, and mixed well. The bacterial suspension was adjusted to a suitable turbidity using a turbidity meter, containing approximately 1×10^8 cfu/mL bacteria. Then the bacterial suspension with the adjusted turbidity was diluted to a bacterial concentration of 5×10^5 cfu/ml using the culture medium for measurement, to complete the preparation of the inoculum solution. 198 μL of the inoculum solution was inoculated into a 96-well plate, and then added with 2 μL of a 100× high-concentration working solution of the compound. Then the 96-well plate was placed at 35° C. for 18 to 24 hours of incubation.

E. coli ATCC 25922 = test: as above; type: cell-based; conditions: Escherichia coli, ATCC25922; E. coli ATCC 25922, 35° C., 18 to 24 hours; read-out: MIC(E. coli)
Experimental: as §1, §2

[2] = recombinant P. aeruginosa LpxC 5 nM, substrate 10 μM, 25° C., 120 minutes, read-out: IC50

Structure (SMILES)	IC50 [1, 2] [nM]	MIC (K. pneumoniae ATCC13883) [µg/mL]	MIC (E. coli ATCC 25922) [µg/mL]	IC50 [1] [nM]
C[C@H](O)c1nccn1Cc1cc(-c2ccc(C#Cc3ccc(CN4CCS(=O)(=O)CC4)cc3)cc2)on1 [Example 50, (S)-4-(4-((4-(3-((2-(1-hydroxyethyl)-1H-imidazol-1-yl)methyl)isoxazol-5-yl)phenyl)ethynyl)benzyl)thiomorpholine 1,1-dioxide]	22.2	4 (≈ 7.74 µM)	2 (≈ 3.87 µM)	
CNC(=O)c1ccc(C#Cc2ccc(-c3cc(Cn4ccnc4[C@H](C)O)no3)cc2)cc1 [Example 43, (S)-4-((4-(3-((2-(1-hydroxyethyl)-1H-imidazol-1-yl)methyl)isoxazol-5-yl)phenyl)ethynyl)-N-methylbenzamide]	36.7	8 (≈ 18.8 µM)	1 (≈ 2.34 µM)	
C[C@H](O)c1nccn1Cc1cc(-c2ccc(C#Cc3ccc(CNCCS(C)(=O)=O)nc3)cc2)on1 [Example 59, (S)-1-(1-((5-(4-((6-(((2-(methylsulfonyl)ethyl)amino)methyl)pyridin-3-yl)ethynyl)phenyl)isoxazol-3-yl)methyl)-1H-imidazol-2-yl)ethan-1-ol]	21.8	8 (≈ 15.8 µM)	2 (≈ 3.96 µM)	
C[C@H](O)c1nccn1Cc1cc(-c2ccc(C#Cc3ccc(CNCCN)cc3)cc2)on1 [Example 57, (S)-1-(1-((5-(4-((4-(((2-aminoethyl)amino)methyl)phenyl)ethynyl)phenyl)isoxazol-3-yl)methyl)-1H-imidazol-2-yl)ethan-1-ol]	14.1	4 (≈ 9.06 µM)	2 (≈ 4.53 µM)	
C[C@H](O)c1nccn1Cc1cc(-c2ccc(C#Cc3ccc(CN4CCN(C)CC4)cc3)cc2)on1 [Example 48, (S)-1-(1-((5-(4-((4-((4-methylpiperazin-1-yl)methyl)phenyl)ethynyl)phenyl)isoxazol-3-yl)methyl)-1H-imidazol-2-yl)ethan-1-ol]	9.77	8 (≈ 16.6 µM)	2 (≈ 4.15 µM)	
C[C@H](O)c1nccn1Cc1cc(-c2ccc(C#Cc3cccc(OCC#N)c3)cc2)on1 [Example 38, (S)-2-(3-((4-(3-((2-(1-hydroxyethyl)-1H-imidazol-1-yl)methyl)isoxazol-5-yl)phenyl)ethynyl)phenoxy)acetonitrile]	50.8	1 (≈ 2.36 µM)	0.5 (≈ 1.18 µM)	
C[C@H](O)c1nccn1Cc1cc(-c2ccc(C#Cc3ccc(C(=O)NCCO)cc3)cc2)on1 [Example 25, (S)-N-(2-Hydroxyethyl)-4-((4-(3-((2-(1-hydroxyethyl)-1H-imidazol-1-yl)methyl)isoxazol-5-yl)phenyl)ethynyl)benzamide]		4 (≈ 8.76 µM)	1 (≈ 2.19 µM)	20.3
C[C@H](O)c1nccn1Cc1cc(-c2ccc(C#Cc3cccc(C(=O)O)c3)cc2)on1 [Example 107, (S)-3-((4-(3-((2-(1-hydroxy-ethyl)-1H-imidazol-1-yl)methyl)isoxazol-5-yl)phenyl)ethynyl) benzoic acid]	16.3		8 (≈ 19.4 µM)	
C[C@H](O)c1nccn1Cc1cc(-c2ccc(C#Cc3ccc(CN4CCOCC4C(=O)O)cc3)cc2)on1 (stereo partly drawn) [Example 20, 4-(4-((4-(3-((2-((S)-1-hydroxyethyl)-1H-imidazol-1-yl)methyl)isoxazol-5-yl)phenyl)ethynyl)benzyl)morpholin-3-carboxylic acid]	9.86		4 (≈ 7.8 µM)	
CCN(CC)CCNC(=O)c1ccc(C#Cc2ccc(-c3cc(Cn4ccnc4[C@H](C)O)no3)cc2)cc1 [Example 70, (S)-N-(2-(diethylamino)ethyl)-4-((4-(3-((2-(1-hydroxyethyl)-1H-imidazol-1-yl)methyl)isoxazol-5-yl)phenyl)ethynyl) benzamide]	12.9		8 (≈ 15.6 µM)	
C[C@H](O)c1nccn1Cc1cc(-c2ccc(C#Cc3ccc(CN4CCNCC4)cc3)cc2)on1 [Example 96, (S)-1-(1-((5-(4-((4-(piperazin-1-ylmethyl)phenyl)ethynyl)phenyl)isoxazol-3-yl)methyl)-1H-imidazol-2-yl)ethan-1-ol]	15.9		4 (≈ 8.55 µM)	
C[C@H](O)c1nccn1Cc1cc(-c2ccc(C#Cc3ccc(C(=O)NCCC(=O)O)cc3)cc2)on1 [Example 73, (S)-3-(4-((4-(3-((2-(1-hydroxyethyl)-1H-imidazol-1-yl)methyl)isoxazol-5-yl)phenyl)ethynyl)benzamido)propanoic acid]	33.1		8 (≈ 16.5 µM)	
C[C@H](O)c1nccn1Cc1cc(-c2ccc(C#Cc3ccc(C(=O)NCCN(C)C)cc3)cc2)on1 [Example 71, (S)-N-(2-(dimethylamino)ethyl)-4-((4-(3-((2-(1-hydroxyethyl)-1H-imidazol-1-yl)methyl)isoxazol-5-yl)phenyl)ethynyl) benzamide]	24.2		8 (≈ 16.5 µM)	
C[C@H](O)c1nccn1Cc1cc(-c2ccc(C#Cc3ccc(N4CCOCC4)cc3)cc2)on1 [Example 5]	72.3		1 (≈ 2.2 µM)	
C[C@H](O)c1nccn1Cc1cc(-c2ccc(C#Cc3ccc(CN4CCOC(C(=O)O)C4)cc3)cc2)on1 (stereo partly drawn) [Example 47, 4-(4-((4-(3-((2-((S)-1-hydroxyethyl)-1H-imidazol-1-yl)methyl)isoxazol-5-yl)phenyl)ethynyl)benzyl)morpholin-2-carboxylic acid]			8 (≈ 15.6 µM)	11.1
C[C@H](O)c1nccn1Cc1cc(-c2ccc(C#Cc3ccc(CNCC(=O)O)cc3)cc2)on1 [Example 99, (S)-(4-((4-(3-((2-(1-hydroxy-ethyl)-1H-imidazol-1-yl)methyl)isoxazol-5-yl)phenyl)ethynyl)benzyl)glycinate]			4 (≈ 8.76 µM)	19.4
C[C@H](O)c1nccn1Cc1cc(-c2ccc(C#Cc3cccc(CCC(=O)O)c3)cc2)on1 [Example 109, (S)-3-(3-((4-(3-((2-(1-hydroxyethyl)-1H-imidazol-1-yl)methyl)isoxazol-5-yl)phenyl)ethynyl)phenyl)propanoic acid]	23.4		4 (≈ 9.06 µM)	
C[C@H](O)c1nccn1Cc1coc(-c2ccc(C#Cc3ccc(CN4CCC(O)CC4)cc3)cc2)n1 [Example 22, (S)-1-(4-((4-(4-((2-(1-hydroxyethyl)-1H-imidazol-1-yl)methyl)oxazol-2-yl)phenyl)ethynyl)benzyl)piperidin-4-ol]	98.9		4 (≈ 8.29 µM)	
C[C@H](O)c1nccn1Cc1cc(-c2ccc(C#Cc3ccc(C(=O)N4CCC(C(=O)O)CC4)cc3)cc2)on1 [Example 69, (S)-1-(4-((4-(3-((2-(1-hydroxyethyl)-1H-imidazol-1-yl)methyl)isoxazol-5-yl)phenyl)ethynyl)benzoyl)piperidin-4-carboxylic acid]	10.4		8 (≈ 15.3 µM)	
C[C@H](O)c1nccn1Cc1cc(-c2ccc(C#Cc3ccc(CN4CCOC(CC(=O)O)C4)cc3)cc2)on1 (stereo partly drawn) [Example 93, 2-(4-(4-((4-(3-((2-((S)-1-hy-droxyethyl)-1H-imidazol-1-yl)methyl)isoxazol-5-yl)phenyl)ethynyl)benzyl)morpholin-2-yl) acetic acid]	16.2		8 (≈ 15.2 µM)	
C[C@H](O)c1nccn1Cc1cc(-c2ccc(C#Cc3ccc(CN4CC(C(=O)O)C4)cc3)cc2)on1 [Example 95, (S)-1-(4-((4-(3-((2-(1-hydroxyethyl)-1H-imidazol-1-yl)methyl)isoxazol-5-yl)phenyl)ethynyl)benzyl)azetidin-3-carboxylic acid]	19.9		8 (≈ 16.6 µM)	
C[C@H](O)c1nccn1Cc1cc(-c2ccc(C#Cc3cccc(OCC(=O)O)c3)cc2)on1 [Example 110, (S)-2-(3-((4-(3-((2-(1-hydroxyethyl)-1H-imidazol-1-yl)methyl)isoxazol-5-yl)phenyl)ethynyl)phenoxy)acetic acid]	11.2		8 (≈ 18 µM)	
